Laboratory results taken from article PMC5304334, “Antifouling potential of Nature-inspired sulfated compounds” (Scientific Reports, 2017).
“Also recorded” adds a separate entry of the source.

Tests used:
[1] = tested on: Mytilus galloprovincialis plantigrades; assay: Anti-settlement bioassay with mussel plantigrades (effectiveness and mortality); format: in vivo; details: for Anti-settlement activity in screening (result in words): 250 and 50 μM, versus negative control, p < 0.05 Dunnett
Protocol: M. galloprovincialis juvenile (0.5 cm shell length approximately) aggregates were collected from mussel beds from the intertidal rocky shore, during low neap tides at Memória beach, Matosinhos, Portugal (41°13′59″N; 8°43′28″W), and immediately transported to the laboratory. M. galloprovincialis plantigrade post-larvae (0.5–2 mm) were screened among the small mussel aggregates in a binocular magnifier (Olympus SZX2-ILLT), gently washed with filtered seawater to remove organic debris and sand particles and isolated in a petri dish with filtered seawater immediately before the bioassays.
For the screening bioassay, competent M. galloprovincialis plantigrades (showing exploring behavior, ie, moving their foot searching for the appropriate substrate to settle) were selected and exposed to the series of sulfated compounds 1–13 at two concentrations (250 and 50 μM) in 24-well microplates for 15 h, at 18 ± 1 °C, in the darkness. Bioassays time frame was selected based on preliminary bioassays to ensure that the response measured is reflecting the compounds effect. Test solutions were prepared in filtered seawater (previously treated by UV light, and carbon filters and mechanically filtered with […] filter before use) and obtained by dilution of the compounds stock solutions (50 mM) in ultra-pure water. Four well replicates were used per condition with five plantigrades per well and 2.5 mL of test solution. A negative control, with ultra-pure water was included in all bioassays, as well as a positive control with 5 μM CuSO4 (a potent AF agent). At the end of the exposure period, the anti-settlement activity was determined by the presence/absence of byssal threads produced by each individual efficiently attached for all the conditions tested.
Data from the anti-settlement and antibacterial screenings were analyzed using a one-way analysis of variance (ANOVA) followed by a Dunnett test against the control (p < 0.05). Semi-maximum response concentration that inhibited 50% larval settlement (EC50), semi-maximum response concentration that inhibited 20% bacterial growth (EC20) and the median lethal dose (LC50) for each bioactive compound were assessed using Probit regression analysis. Pearson Goodness-of-fit (Chi-Square) significance was considered at p < 0.05 for all analyses, and 95% lower and upper confidence limits [95% LCL; UCL] were presented. Therapeutic ratio (LC50/EC50) was used to evaluate the effectiveness vs toxicity of compounds[31][53][54]. The software IBM SPSS Statistics 21 was used for statistical analysis.

[2] = tested on: Vibrio fischeri (NRRL-B-11177); assay: Luminescent Vibrio fischeri ecotoxicity assay (ISO11348); format: cell-based; details: V. fischeri luminescence, 30 min contact
Protocol: After 5, 15 and 30 min of exposure, the light emitted as a by-product of Vibrio fischeri cellular respiration was measured at 490 nm. Any inhibition of cellular activity results in a decreased rate of respiration and a corresponding decrease in the rate of luminescence. The decrease of bacterial luminescence measured after 5, 15 or 30 min of exposition was used as test endpoint. Luminescence was measured using a LUMIStox photometer from DR LANGE, after a contact time of 15 min and 30 min at 15 ± 1 °C, taking into account a correction factor, fk, which is a measure of intensity change of control samples during the exposure time.
The pH of all samples was within the interval 6.0–8.5.

With `O=C(/C=C/c1ccc(OS(=O)(=O)O)c(OS(=O)(=O)O)c1)O[C@@H]1C[C@](OS(=O)(=O)O)(C(=O)O)C[C@@H](OS(=O)(=O)O)[C@H]1OS(=O)(=O)O` [Compound 13, chlorogenic acid persulfate] the “Anti-settlement activity in screening (result in words)” value (shortened to “Anti-settlement activity in screening”) ([1]; 15 h) was “much less potent than compound 12”.

`[K+].[K+].[O]=[Cr](=[O])([O-])[O][Cr](=[O])(=[O])[O-]` [K2Cr2O7, Potassium dichromate, reference compound] was tested, and the “EC50 30min” value [2] was 5.67 µg/mL and the “EC80 30min” value [2] was 16.73 µg/mL.

With `O=c1c2ccc(OCc3cn([C@@H]4O[C@H](COS(=O)(=O)O)[C@H](OS(=O)(=O)O)[C@H](OS(=O)(=O)O)[C@H]4OS(=O)(=O)O)nn3)cc2oc2cc(OCc3cn([C@@H]4O[C@H](COS(=O)(=O)O)[C@H](OS(=O)(=O)O)[C@H](OS(=O)(=O)O)[C@H]4OS(=O)(=O)O)nn3)ccc12` [Compound 7, 3,6-bis(1-(1-(β-D-galatopyranosyl)-1H-1,2,3-triazole-4-yl)methoxy)xanthone persulfate] the “Anti-settlement activity in screening” value ([1]; 15 h) was “not active”.

With `N#Cc1c(-c2ccc(Cl)cc2)[nH]c(C(F)(F)F)c1Br` [ECONEA®] the “Mortality/toxicity to target species plantigrades” value ([1]; all tested concentrations up to 500 μM) was “showed some toxicity at the higher concentrations tested”, the LC50 ([1]; mortality of plantigrades, 15 h, up to 500 μM, read-out: LC50, the median lethal dose) was 108 µM and the “EC50, minimum concentration that inhibited 50% of larval settlement” value ([1]; plantigrades, 15 h, 18 °C) was 1.40 µg/mL. For the same compound, the EC50 ([1]; plantigrades, 15 h, 18 °C, 1.56–500 μM, read-out: EC50, minimum concentration that inhibited 50% of larval settlement) was 4.01 µM.

`C[C@@H]1O[C@@H](OC[C@H]2O[C@@H](Oc3c(-c4ccc(OCCOS(=O)(=O)O)c(OCCOS(=O)(=O)O)c4)oc4cc(OCCOS(=O)(=O)O)cc(O)c4c3=O)[C@H](OS(=O)(=O)O)[C@@H](OS(=O)(=O)O)[C@@H]2OS(=O)(=O)O)[C@H](OS(=O)(=O)O)[C@H](OS(=O)(=O)O)[C@H]1OS(=O)(=O)O` [Compound 3, 3″,4″-bis(2-sulfateethoxy)-7-(2-sulfateethoxy)-rutin 2″,2″′,3′,3″′,4′,4″′,7-sulfate] was tested, and the “Anti-settlement activity in screening” value ([1]; 15 h) was “did not show notable activity”.

In the case of `O=C(O)c1cc(O)c(O)c(O)c1` [Compound 15, gallic acid, reference compound], the “Anti-settlement activity in screening” value ([1]; 15 h) is reported as “did not show significant anti-settlement activity; also recorded: not active”.

For `C[C@@H]1O[C@@H](OC[C@H]2O[C@@H](Oc3c(-c4ccc(O)c(O)c4)oc4cc(O)cc(O)c4c3=O)[C@H](O)[C@@H](O)[C@@H]2O)[C@H](O)[C@H](O)[C@H]1O` [Compound 14, rutin, reference compound], the “Anti-settlement activity in screening” value ([1]; 15 h) was “did not show significant anti-settlement activity; also recorded: not active”.
